Series [1] in a line: Ex vivo biodistribution of free and chelated ^134Ce/^225Ac in healthy mice. The settings on record: healthy wild-type C57BL/6 mice, tail vein injection, 1 h for ^134Ce.
Details of series [2]: method as in PMID 34190542. The settings on record: for nonradioactive cerium ref 14; cited from earlier work.

For `[Cl][134Ce]([Cl])[Cl]` [^134CeCl3], in series [1], the bone uptake is given as 15.54 ± 2.69 %ID/g and the liver uptake was determined as 71.5 ± 4.3 %ID/g.
The matching figures for `[225Ac+3].[Cl-].[Cl-].[Cl-]` [^225AcCl3]: 29.56 ± 2.40 %ID/g and 38.33 ± 6.75 %ID/g.
For the compound `O=C(O)c1cccc(CN2CCOCCOCCN(Cc3cccc(C(=O)O)n3)CCOCCOCC2)n1` [MACROPA], the “stability (KLnL)” value in series [2] is on record as 15.1.
Regarding `O=C([O-])CN1CCN(CC(=O)[O-])CCN(CC(=O)[O-])CCN(CC(=O)[O-])CC1.[225Ac+3]` [^225Ac-DOTA], in series [1], the blood uptake came out at 0.23 ± 0.02 %ID/g, the bone uptake worked out at 2.26 ± 0.56 %ID/g, the kidney uptake worked out at 3.07 ± 0.99 %ID/g and the liver uptake is 0.28 ± 0.008 %ID/g.

(Values after paper PMC10315697, “Evaluation of ^134Ce/^134La as a PET Imaging Theranostic Pair for ^225Ac α-Radiotherapeutics” (Journal of Nuclear Medicine, 2023).)
